The experiment has as its system PBMC. It counts as cell-based, human.

Here are results for one sequence from US10286063B2 (priority 2015, dated 2019).

For the sequence “RGILKRNSSSSSTDS [Peptide 5-HUMAN-B, reference compound]”, the “% Inhibition by HLA-DR blocking Ab” value came out at 100%.
